In patent publication US7196088B2, “Substituted tetrahydroisoquinolines and uses thereof” (Roche Palo Alto LLC, priority 2003, dated 2007):
Counter-ions that a name gives are not always drawn.

How the values were obtained:
[1] = biological target: recombinant human 5-HT6 receptor (Homo sapiens, UniProt P50406); assay: Radioligand binding studies: competition for [3H]LSD binding in membranes of HEK293 cells expressing the receptor
recombinant human 5-HT6 receptor, sequence (P50406 whole entry): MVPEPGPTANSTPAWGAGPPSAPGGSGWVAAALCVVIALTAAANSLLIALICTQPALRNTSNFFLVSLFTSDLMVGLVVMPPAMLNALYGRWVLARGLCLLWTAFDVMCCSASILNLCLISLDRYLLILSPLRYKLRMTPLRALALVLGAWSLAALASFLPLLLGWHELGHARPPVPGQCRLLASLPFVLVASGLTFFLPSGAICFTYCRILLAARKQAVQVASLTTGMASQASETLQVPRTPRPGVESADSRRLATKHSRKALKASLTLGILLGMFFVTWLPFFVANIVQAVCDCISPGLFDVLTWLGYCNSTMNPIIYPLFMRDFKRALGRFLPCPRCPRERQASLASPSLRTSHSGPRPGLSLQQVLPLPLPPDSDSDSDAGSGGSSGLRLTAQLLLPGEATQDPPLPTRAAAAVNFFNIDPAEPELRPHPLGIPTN

Row | SMILES | melting point [°C] | Ki [1] [pM]
1 | O=S(=O)(c1ccccc1)N1CCc2c(cccc2N2CCNCC2)C1 (as salt: trifluoroacetic acid salt) | 214 to 216 | 
2 | O=S(=O)(c1cccc(Cl)c1Cl)N1CCc2c(cccc2N2CCNCC2)C1 [Compound 16, 2-(2,3-Dichloro-benzenesulfonyl)-5-pipe-razin-1-yl-1,2,3,4-tetra-hydroisoquinoline] |  | 42.7
